Entries after “also recorded” stand apart in the source; their conditions may differ.
Key:
[1] = system: LUHMES neurons; assay: MTT assay, annonacin-treated LUHMES neurons; assay type: cell-based, human; settings: annonacin + PERK activator 200 nM or PERK inhibitor 300 nM, 48 h, vs no PERK modulator
Protocol: (§1) Nunc™ Nunclon™ Delta 6-well (for protein and mRNA) or 48-well (for cell assays) plates (Thermo Fisher Scientific, Waltham, Mass., USA) were coated with 100 μg/ml poly-L-lysine (Sigma-Aldrich, St. Louis, Mo., USA) and 5 μg/ml fibronectin (Sigma-Aldrich). LUHMES (Lund Human Mesencephalic) cells, derived from human embryonic ventral mesencephalic cells by conditional immortalization (Tet-off v-myc over-expression) were seeded out in a concentration of 130,000 cells/cm^2 to achieve a confluence of 50%. They were then differentiated for 8 days in a medium of DMEM/F12 (Sigma-Aldrich), 1 μg/ml tetracycline, […] and 490 μg/ml dbcAMP into post-mitotic neurons with a dopaminergic phenotype (Lotharius et al. 2005).
For all experiments with annonacin, the medium was replaced during the intoxication period with new medium containing glucose levels reduced to 250 μM, i.e. the physiological concentration in the human brain.
Thiazolyl Blue Tetrazolium […] (MTT) (Sigma Aldrich) was dissolved in sterile PBS to a concentration of 5 mg/ml. This stock solution was added to the cells in culture medium to achieve a final concentration of 0.5 mg/ml. The 48-well culture plate was then incubated at 37° C. for 1 h, the medium removed completely and frozen at −80° C. for 1 h. The plate was then thawed, 300 μl DMSO (AppliChem, Darmstadt, Germany) was added per well and the plate was shaken to ensure complete dissolution of the violet crystals. 100 μl from each well were transferred to a new 96-well plate and the absorbance was read with the FLUOstar Omega (BMG Labtech) platereader at a wavelength of 590 nm (reference wave length 630 nm). The data was analyzed using the MARS Data Analysis Software (BMG Labtech) and Prism 6.

[2] = system: LUHMES neurons overexpressing 4R-tau; assay: ATP assay, LUHMES neurons overexpressing 4R-tau; assay type: cell-based, human; settings: lentiviral 4R-tau overexpression 10 days, co-administration of PERK modulator
Protocol: as §1, with “2005). […]” for “2005).”
Concentrated lentiviral particles were titrated by transducing LUHMES cells with different dilutions at 6 hours after initiating differentiation. The lowest dilution at which at least 90% of cells expressed the transgene (as determined by immunohistochemistry of the cells fixed on day 2 post differentiation) was chosen for subsequent experiments. […]
ATP assays were conducted using the ViaLight™ plus kit by Lonza according to the manufacturer's instructions. Luminescence was read with the FLUOstar Omega (BMG Labtech) platereader. The data was analyzed using the MARS Data Analysis Software (BMG Labtech) and Prism 6.

[3] = target: T1, PERK (Homo sapiens, UniProt Q9NZJ5); assay: Western blot for pEIF2A and pNRF2, lentiviral 3R/4R-tau overexpression model; assay type: cell-based; design: endogenous in cells; host or cells: LUHMES neurons (differentiated, human); in A5 transduced with lentivirus for 3R-/4R-tau or mCherry, not for PERK; settings: for pNRF2 level: 4R-tau overexpressing cells, PERK activator 200 nM or PERK inhibitor 300 nM; for effect on pEIF2A and pNRF2: lentiviral 3R-tau overexpression
T1 sequence (Q9NZJ5 30-1116): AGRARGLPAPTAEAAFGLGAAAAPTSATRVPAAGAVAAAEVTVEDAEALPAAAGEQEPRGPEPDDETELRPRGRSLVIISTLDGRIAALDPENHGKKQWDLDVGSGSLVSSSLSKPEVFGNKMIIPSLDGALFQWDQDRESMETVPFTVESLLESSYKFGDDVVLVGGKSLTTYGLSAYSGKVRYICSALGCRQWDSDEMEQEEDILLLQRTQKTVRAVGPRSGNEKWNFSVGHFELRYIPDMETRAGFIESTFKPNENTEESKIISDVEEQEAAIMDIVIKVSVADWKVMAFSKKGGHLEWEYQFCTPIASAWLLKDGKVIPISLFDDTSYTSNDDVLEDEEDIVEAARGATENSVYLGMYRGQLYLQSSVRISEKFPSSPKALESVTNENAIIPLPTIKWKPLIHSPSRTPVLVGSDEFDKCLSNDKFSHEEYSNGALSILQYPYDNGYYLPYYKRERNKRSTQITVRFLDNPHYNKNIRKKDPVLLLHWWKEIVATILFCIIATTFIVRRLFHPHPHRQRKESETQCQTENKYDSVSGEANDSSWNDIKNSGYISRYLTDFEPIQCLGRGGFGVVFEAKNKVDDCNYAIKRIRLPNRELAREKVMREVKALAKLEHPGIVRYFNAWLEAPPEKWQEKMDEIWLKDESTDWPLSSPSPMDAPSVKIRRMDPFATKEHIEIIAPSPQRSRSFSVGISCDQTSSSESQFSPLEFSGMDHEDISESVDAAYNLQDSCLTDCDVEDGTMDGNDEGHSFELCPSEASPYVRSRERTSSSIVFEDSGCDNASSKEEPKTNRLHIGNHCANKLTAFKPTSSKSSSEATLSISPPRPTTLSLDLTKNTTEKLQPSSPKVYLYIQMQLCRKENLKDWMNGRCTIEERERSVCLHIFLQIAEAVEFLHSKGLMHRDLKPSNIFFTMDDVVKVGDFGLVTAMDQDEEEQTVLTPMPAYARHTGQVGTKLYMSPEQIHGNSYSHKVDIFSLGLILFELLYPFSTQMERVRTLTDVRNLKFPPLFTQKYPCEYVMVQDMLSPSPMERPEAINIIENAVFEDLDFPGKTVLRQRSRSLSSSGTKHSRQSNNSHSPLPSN

## CCN(CC)CCC(=O)N1N=C(c2c(-c3ccccc3)c3cc(Br)ccc3[nH]c2=O)CC1c1ccc(Br)cc1 (stereo not shown) [CCT020312, 6-bromo-3-[5-(4-bromo-phenyl)-1-(3-diethylamino-propionyl)-4,5-dihydro-1H-pyrazol-3-yl]-4-phenyl-1H-quinolin-2-one]
[1]
  MTT test, effect of co-treatment: significant improvement
[2]
  4R-specific toxicity in ATP assay: reduced significantly
[3]
  pNRF2 level: significantly increased
  effect on pEIF2A and pNRF2: no significant effect
[3]; lentiviral 3R or 4R-tau overexpression, PERK activator 200 nM
  pEIF2A level: did not increase

## Cn1cc(-c2ccc3c(c2)CCN3C(=O)Cc2cccc(C(F)(F)F)c2)c2c(N)ncnc21 [GSK2606414, reference compound]
[1]
  MTT test, effect of co-treatment: did not significantly improve; also recorded: never significant
[2]
  4R-specific toxicity in ATP assay: provided protection in the ATP assay, but to a lesser extent
[3]
  pNRF2 level: not pNRF2
  effect on pEIF2A and pNRF2: no significant effect
[3]; 4R-tau overexpression, PERK inhibitor 300 nM
  pEIF2A level: decreased

Source: patent US10369123B2, “Perk activator for the treatment of neurodegenerative diseases” (DEUTSCHES ZENTRUM FÜR NEURODEGENERATIVE ERKRANKUNGEN E.V. …, priority 2014, dated 2019)
